The numbers were not newly measured in patent US20160279255A1, “THERAPEUTIC COMPOSITIONS INCLUDING MODULATORS OF deltaPKC AND/OR epsilonPKC, AND USES THEREOF” (priority 2014, published 2016), which cites them from elsewhere.

The subject of this data set is several mammalian cell types. As to conditions: energy-independent manner; cited from earlier work.

2′,6′-Dmt-D-Arg-Phe-Lys-NH2: the “penetration of the plasma membrane” value is “readily penetrates the plasma membrane”.
